Source: patent US20080113946A1, “N-aryl-5,7-dihydrofuro[3,4-d]pyrimidin-4-amines and analogs as activators of caspases and inducers of apoptosis and the use thereof” (Cyntovia, Inc., priority 2006, published 2008)
Where two headings read alike, the source gives them in different places.

Legend:
Format in all cases: cell-based
[1] = tested on: T-47D cells; test: Inhibition of cell proliferation (GI50, CellTiter-Glo) in T-47D cells; details: Homo sapiens, T47D, 48 h, read-out: GI50 in Cancer Cells T47D
Method: (§1) T-47D, MX-1, SNU398 and HCT116 cells were grown and harvested as in Example 33. An aliquot of 90 μL of cells (4.4×10^4 cells/mL) was added to a well of a 96-well microtiter plate containing 5 μL of a 10% DMSO in RPMI-1640 media solution containing 10 nM to 100 μM of 5,7-dihydro-N-(3,5-dimethoxyphenyl)-2-(methylthio)furo[3,4-d]pyrimidin-4-amine (1 nM to 10 μM final) or related compounds. An aliquot of […] of cells was added to a well of a 96-well microtiter plate containing 5 μL of a 10% DMSO in RPMI-1640 media solution without compound as the control sample for maximal cell proliferation (LMax). The samples were mixed by agitation and then incubated at 37° C. for 48 h in a 5% CO2-95% humidity incubator. After incubation, the samples were removed from the incubator and 25 μL of CellTiter-Glo™ reagent (Promega) was added. The samples were mixed by agitation and incubated at room temperature for 10-15 min. Plates were then read using a luminescent plate reader (Model SPECTRAfluor Plus, Tecan) to give Ltest values.
(§2) Baseline for GI50 (dose for 50% inhibition of cell proliferation) of initial cell numbers was determined by adding an aliquot of 45 μL of cells or 45 μL of media, respectively, to wells of a 96-well microtiter plate containing 5 μL of a 10% DMSO in RPMI-1640 media solution. The samples were mixed by agitation and then incubated at 37° C. for 0.5 h in a 5% CO2-95% humidity incubator. After incubation, the samples were removed from the incubator and 25 μL of CellTiter-Glo™ reagent (Promega) was added. The samples were mixed by agitation and incubated at 37° C. for 10-15 min at room temperature in a 5% CO2-95% humidity incubator. Fluorescence was read as above, (LStart) defining luminescence for initial cell number used as baseline in GI50 determinations.
(§3) GI50 (dose for 50% inhibition of cell proliferation) is the concentration where [(LTest−LStart)/(LMax−LStart)]=0.5.

[2] = tested on: breast cancer cell line SKBR3; test: Caspase cascade activation (24 h assay) in SKBR3 cells; details: Homo sapiens, SK-BR-3, 24 h assay (Table II), read-out: Caspase Activation Potency EC50 (24 h) SKBR3
Method: [The procedure below names another cell line; the source lists this cell line under the same test.] Human breast cancer cell line T-47D, human hepatocellular carcinoma cell line SNU398 and human colon carcinoma cell line HCT116 were grown according to media component mixtures designated by American Type Culture Collection+10% FCS (Invitrogen Corporation), in a 5% CO2-95% humidity incubator at 37° C. T-47D and H1299 cells were maintained at a cell density between 50 and 80% confluency at a cell density of 0.1 to 0.6×10^6 cells/mL. Cells were harvested at 600×g and resuspended at 0.65×10^6 cells/mL into appropriate media+10% FCS. […] Using a fluorescent plate reader (Model SPECTRAfluor Plus, Tecan), an initial reading (T=0) was made approximately 1-2 min after addition of the substrate solution, employing excitation at 485 nm and emission at 530 nm, to determine the background fluorescence of the control sample. After the 3 h incubation, the samples were read for fluorescence as above (T=3 h).
(§4) The Relative Fluorescence Unit values (RFU) were used to calculate the sample readings as follows: RFU(T=3h)−Control RFU(T=0)=Net RFU(T=3h)
(§5) The activity of caspase cascade activation was determined by the ratio of the net RFU value for 5,7-dihydro-N-(3,5-dimethoxyphenyl)-2-(methylthio)furo[3,4-d]pyrimidin-4-amino or other test compound to that of control samples. The EC50 (nM) was determined by a sigmoidal dose-response calculation (Prism 3.0, GraphPad Software Inc.). […]

[3] = tested on: MX-1 cells; test: Inhibition of cell proliferation (GI50, CellTiter-Glo) in MX-1 cells; details: Homo sapiens, MX1, 48 h, read-out: GI50 in Cancer Cells MX1
Method: as §1, §2, §3

[4] = tested on: human hepatocellular carcinoma cell line SNU398; test: Caspase cascade activation (Ac-DEVD-R110 fluorogenic substrate) in SNU398 cells
Method: (§6) Human breast cancer cell line T-47D, human hepatocellular carcinoma cell line SNU398 and human colon carcinoma cell line HCT116 were grown according to media component mixtures designated by American Type Culture Collection+10% FCS (Invitrogen Corporation), in a 5% CO2-95% humidity incubator at 37° C. T-47D and H1299 cells were maintained at a cell density between 50 and 80% confluency at a cell density of 0.1 to 0.6×10^6 cells/mL. Cells were harvested at 600×g and resuspended at 0.65×10^6 cells/mL into appropriate media+10% FCS. An aliquot of 22.5 μL of cells was added to a well of a 384-well microtiter plate containing 2.5 μL of a 10% DMSO in RPMI-1640 media solution containing 0.16 to 100 μM of 5,7-dihydro-N-(3,5-dimethoxyphenyl)-2-(methylthio)furo[3,4-d]pyrimidin-4-amine or other test compound (0.016 to 10 μM final). An aliquot of 22.5 μL of cells was added to a well of a 384-well microtiter plate containing 2.5 μL of a 10% DMSO in RPMI-1640 media solution without test compound as the control sample. The samples were mixed by agitation and then incubated at 37° C. for 24 or 48 h in a 5% CO2-95% humidity incubator. After incubation, the samples were removed from the incubator and 25 μL of a solution containing 14 μM of N-(Ac-DEVD)-N′-ethoxycarbonyl-R110 (SEQ ID No.:1) fluorogenic substrate (Cytovia, Inc.; WO99/18856), 20% sucrose (Sigma), 20 mM DTT (Sigma), 200 mM NaCl (Sigma), 40 mM Na PIPES buffer pH 7.2 (Sigma), and 500 µg/mL lysolecithin (Calbiochem) was added. The samples were mixed by agitation and incubated at room temperature. Using a fluorescent plate reader (Model SPECTRAfluor Plus, Tecan), an initial reading (T=0) was made approximately 1-2 min after addition of the substrate solution, employing excitation at 485 nm and emission at 530 nm, to determine the background fluorescence of the control sample. After the 3 h incubation, the samples were read for fluorescence as above (T=3 h).
as §4
(§7) The activity of caspase cascade activation was determined by the ratio of the net RFU value for 5,7-dihydro-N-(3,5-dimethoxyphenyl)-2-(methylthio)furo[3,4-d]pyrimidin-4-amino or other test compound to that of control samples. The EC50 (nM) was determined by a sigmoidal dose-response calculation (Prism 3.0, GraphPad Software Inc.).

[5] = tested on: Human breast cancer cell line T-47D; test: Caspase cascade activation (Ac-DEVD-R110 fluorogenic substrate) in T-47D cells; details: T47D
Method: as §6, §4, §7

[6] = tested on: HCT116 cells; test: Inhibition of cell proliferation (GI50, CellTiter-Glo) in HCT116 cells; details: Homo sapiens, HCT-116, 48 h, read-out: GI50 in Cancer Cells HCT116
Method: as §1, §2, §3

[7] = tested on: SNU398 cells; test: Inhibition of cell proliferation (GI50, CellTiter-Glo) in SNU398 cells; details: Homo sapiens, SNU-398, 48 h, read-out: GI50 in Cancer Cells SNU398
Method: as §1, §2, §3

[8] = tested on: human colon carcinoma cell line HCT116; test: Caspase cascade activation (Ac-DEVD-R110 fluorogenic substrate) in HCT116 cells; details: HCT-116, incubated 24 or 48 h (Table I), 0.016 to 10 μM final, read-out: Caspase Activation Potency EC50 HCT116
Method: as §6, §4, §7

[9] = tested on: human lung cancer cell line H1299; test: Caspase cascade activation (24 h assay) in H1299 cells; details: NCI-H1299, 24 h assay (Table II), read-out: Caspase Activation Potency EC50 (24 h) H1299
Method: as §6, with “After incubation, the samples were removed from the incubator and 25 μL of a solution containing 14 μM of N-(Ac-DEVD)-N′-ethoxycarbonyl-R110 (SEQ ID No.:1) fluorogenic substrate (Cytovia, Inc.; WO99/18856), 20% sucrose (Sigma), 20 mM DTT (Sigma), 200 mM NaCl (Sigma), 40 mM Na PIPES buffer pH 7.2 (Sigma), and 500 µg/mL lysolecithin (Calbiochem) was added. The samples were mixed by agitation and incubated at room temperature.” left out
as §4, §5

[10] = tested on: multi-drug resistant (MDR) murine leukemia cell line P388ADR; test: Inhibition of cell proliferation (GI50) in P388ADR cells; details: Mus musculus, P388/ADR, read-out: GI50 in Multi-Cancer Cells P388ADR
Method: [The procedure below names another organism; the source lists this organism under the same test.] as §1
(§8) Baseline for GI50 (dose for 50% inhibition of cell proliferation) of initial cell numbers was determined by adding an aliquot of 45 μL of cells or 45 μL of media, respectively, to wells of a 96-well microtiter plate containing 5 μL of a 10% DMSO in RPMI-1640 media solution. […]

[11] = tested on: multi-drug resistant (MDR) human sarcoma cell line MES-SA/ADR; test: Inhibition of cell proliferation (GI50) in MES-SA/ADR cells; details: read-out: GI50 in Multi-Cancer Cells MES-SA/ADR
Method: [The procedure below names another cell line; the source lists this cell line under the same test.] as §1, §8

[12] = tested on: human sarcoma cell line MES-SA; test: Inhibition of cell proliferation (GI50) in MES-SA cells; details: read-out: GI50 in Multi-Cancer Cells MES-SA
Method: [The procedure below names another cell line; the source lists this cell line under the same test.] as §1, §8

[13] = tested on: human breast cancer cell lines MDAMB435; test: Inhibition of cell proliferation (GI50) in MDAMB435 cells; details: MDA-MB-435, read-out: GI50 in Multi-Cancer Cells MDAMB435
Method: [The procedure below names another cell line; the source lists this cell line under the same test.] as §1, §8

[14] = tested on: murine leukemia cell line P388; test: Inhibition of cell proliferation (GI50) in P388 cells; details: Mus musculus, read-out: GI50 in Multi-Cancer Cells P388
Method: [The procedure below names another organism; the source lists this organism under the same test.] as §1, §8

[15] = SNU-398, 24 h assay (Table II), read-out: Caspase Activation Potency EC50 (24 h) SNU398
[16] = SNU-398, incubated 24 or 48 h (Table I), 0.016 to 10 μM final, read-out: Caspase Activation Potency EC50 SNU398
[17] = 24 h assay (Table II), read-out: Caspase Activation Potency EC50 (24 h) T47D
[18] = T-47D, incubated 24 or 48 h (Table I), 0.016 to 10 μM final, read-out: Caspase Activation Potency EC50 T-47D

Row | SMILES | GI50 [1] [nM] | EC50 [2] [nM] | EC50 [4, 15] [nM] | EC50 [4, 16] [nM] | EC50 [5, 17] [nM] | EC50 [5, 18] [nM] | GI50 [6] [nM] | GI50 [7] [nM] | EC50 [8] [nM] | EC50 [9] [nM] | GI50 [10] [nM] | GI50 [11] [nM] | GI50 [12] [nM] | GI50 [13] [nM] | GI50 [14] [nM] | GI50 [3] [nM]
1 | COc1ccc(OC)c(Nc2nc(SC)nc3c2CCC3)c1 [Example 18, 6,7-Dihydro-N-(2,5-dimethoxyphenyl)-2-(methylthio)-5H-cyclopenta[d]pyrimidin-4-amine] | 21 |  | > 10000 | 1320 | 82 | 134 | > 10000 | > 10000 | 286 | 934 |  |  |  |  |  | 200
2 | COc1ccc(N(C)c2nc(SC)nc3c2CCC3)cc1 [Example 23, 6,7-Dihydro-N-(4-methoxyphenyl)-N-methyl-2-(methylthio)-5H-cyclopenta[d]pyrimidin-4-amine] | 46 |  | 35 |  | 32 | 31 |  |  |  | 43 | 21 | 26 | 26 | 4 | 14 | 50
3 | COc1ccc(OC)c(Nc2ncnc3c2CCC3)c1 [Example 25, 6,7-Dihydro-N-(2,5-dimethoxyphenyl)-5H-cyclopenta[d]pyrimidin-4-amine] | 1000 | 355 | > 10000 | > 10000 | 244 | 260 | > 10000 | > 10000 | > 10000 | > 10000 |  |  |  |  |  | 890

Now from value to compound, other results behind:

Row | GI50 [1] [nM] | EC50 [2] [nM] | EC50 [4, 15] [nM] | EC50 [4, 16] [nM] | EC50 [5, 17] [nM] | EC50 [5, 18] [nM] | GI50 [6] [nM] | GI50 [7] [nM] | EC50 [8] [nM] | EC50 [9] [nM] | GI50 [10] [nM] | GI50 [11] [nM] | GI50 [12] [nM] | GI50 [13] [nM] | GI50 [14] [nM] | SMILES | GI50 [3] [nM]
4 | 183 | 118 | > 10000 | 4710 | 54 | 61 | 3000 | 3740 | 5500 |  |  |  |  |  |  | COc1cc(Nc2nc(SC)nc3c2COC3)cc(OC)c1 [Example 7, 5,7-Dihydro-N-(3,5-dimethoxyphenyl)-2-(methylthio)furo[3,4-d]pyrimidin-4-amine] | 27
5 | 5000 |  |  | > 10000 |  | 987 | > 10000 | > 10000 | > 10000 |  |  |  |  |  |  | COc1cc(Nc2ncnc3c2CCC3)cc(OC)c1 [Example 24, 6,7-Dihydro-N-(3,5-dimethoxyphenyl)-5H-cyclopenta[d]pyrimidin-4-amine] | 5000
6 | 500 |  |  | > 10000 |  | 164 | > 10000 | > 10000 | > 10000 |  |  |  |  |  |  | COc1cc(Nc2nc([S+](C)[O-])nc3c2CCC3)cc(OC)c1 (centres unmarked) [Example 27, 6,7-Dihydro-N-(3,5-dimethoxyphenyl)-2-(methylsulfinyl)-5H-cyclopenta[d]pyrimidin-4-amine] | 600
